We go through 22 compounds from patent US20100093702A1, “METHYLENE AMINES OF THIENO[2,3-d]PYRIMIDINE AND THEIR USE AS ADENOSINE A2a RECEPTOR ANTAGONISTS” (priority 2008, published 2010).

In test [1] the target is T1, human adenosine A2a receptor (Homo sapiens, UniProt P29274).
T1 construct: expressed in transfected cells; host or cells: CHO-K1
Nature of the test: Adenosine A2a Receptor Functional Assay (A2AGAL2). To be noted: CHO-K1 cells, cAMP inducible beta-galactosidase reporter, 15 nM NECA agonist challenge. It is filed as cell-based. As for the experimental part:
Adenosine A2a Receptor Functional Assay (A2AGAL2)
To initiate the functional assay, cryopreserved CHO-K1 cells overexpressing the human adenosine A2a receptor and containing a cAMP inducible beta-galactosidase reporter gene were thawed, centrifuged, DMSO containing media removed, and then seeded with fresh culture media into clear 384-well tissue culture treated plates (BD #353961) at a concentration of 10K cells/well. Prior to assay, these plates were cultured for two days at 37° C., 5% CO2, 90% Rh. On the day of the functional assay, culture media was removed and replaced with 45 uL assay medium (Hams/F-12 Modified (Mediatech # 10-080CV) supplemented w/0.1% BSA). Test compounds were diluted and 11 point curves created at a 1000× concentration in 100% DMSO. Immediately after addition of assay media to the cell plates, 50 nL of the appropriate test compound antagonist or agonist control curves were added to cell plates using a Cartesian Hummingbird. Compound curves were allowed to incubate at room temperature on cell plates for approximately 15 minutes before addition of a 15 nM NECA (Sigma E2387) agonist challenge (5 uL volume). A control curve of NECA, a DMSO/Media control, and a single dose of Forskolin (Sigma F3917) were also included on each plate. After additions, cell plates were allowed to incubate at 37° C., 5% CO2, 90% Rh for 5.5-6 hours. After incubation, media was removed, and cell plates were washed 1×50 uL with DPBS w/o Ca & Mg (Mediatech 21-031-CV). Into dry wells, 20 uL of 1× Reporter Lysis Buffer (Promega E3971 (diluted in dH2O from 5× stock)) was added to each well and plates frozen at −20° C. overnight. For β-galactosidase enzyme calorimetric assay, plates were thawed out at room temperature and 20 μL 2× assay buffer (Promega) was added to each well. Color was allowed to develop at 37° C., 5% CO2, 90% Rh for 1-1.5 h or until reasonable signal appeared. The calorimetric reaction was stopped with the addition of 60 μL/well 1M sodium carbonate. Plates were counted at 405 nm on a SpectraMax Microplate Reader (Molecular Devices). Data was analyzed in Microsoft Excel and IC/EC50 curves were fit using a standardized macro.

Test [2] has as its target T2, human adenosine A1 receptor (Homo sapiens, UniProt P30542).
T2 construct: expressed in transfected cells; host or cells: CHO-K1
T2 sequence (P30542 1-326): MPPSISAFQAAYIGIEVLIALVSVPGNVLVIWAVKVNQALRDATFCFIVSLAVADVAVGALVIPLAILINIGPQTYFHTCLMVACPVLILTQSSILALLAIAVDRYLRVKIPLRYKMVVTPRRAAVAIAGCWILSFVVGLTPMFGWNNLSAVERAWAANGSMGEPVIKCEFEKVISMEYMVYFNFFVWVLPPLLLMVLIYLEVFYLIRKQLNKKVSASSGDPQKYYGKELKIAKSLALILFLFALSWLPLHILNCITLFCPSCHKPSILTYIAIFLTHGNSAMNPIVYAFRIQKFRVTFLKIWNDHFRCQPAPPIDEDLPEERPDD
Nature of the test: Adenosine A1 Receptor Functional Assay (A1GAL2). To be noted: CHO-K1 cells, cAMP inducible beta-galactosidase reporter, 4 nM r-PIA/1 uM Forskolin challenge. It is filed as cell-based. As for the experimental part: Adenosine A1 Receptor Functional Assay (A1GAL2)
To initiate the functional assay, cryopreserved CHO-K1 cells overexpressing the human adenosine A1 receptor and containing a cAMP inducible beta-galactosidase reporter gene were thawed, centrifuged, DMSO containing media removed, and then seeded with fresh culture media into clear 384-well tissue culture treated plates (BD #353961) at a concentration of 10K cells/well. Prior to assay, these plates were cultured for two days at 37° C., 5% CO2, 90% Rh. On the day of the functional assay, culture media was removed and replaced with 45 uL assay medium (Hams/F-12 Modified (Mediatech # 10-080CV) supplemented w/0.1% BSA). Test compounds were diluted and 11 point curves created at a 1000× concentration in 100% DMSO. Immediately after addition of assay media to the cell plates, […] of the appropriate test compound antagonist or agonist control curves were added to cell plates using a Cartesian Hummingbird. Compound curves were allowed to incubate at room temperature on cell plates for approximately 15 minutes before addition of a 4 nM r-PIA (Sigma P4532)/1 uM Forskolin (Sigma F3917) agonist challenge (5 uL volume). A control curve of r-PIA in 1 uM Forskolin, a DMSO/Media control, and a single dose of Forskolin were also included on each plate. After additions, cell plates were allowed to incubate at 37° C., 5% CO2, 90% Rh for 5.5-6 hours. After incubation, media was removed, and cell plates were washed 1×50 uL with DPBS w/o Ca & Mg (Mediatech 21-031-CV).
Into dry wells, 20 uL of 1× Reporter Lysis Buffer (Promega E3971 (diluted in dH2O from 5× stock)) was added to each well and plates frozen at −20° C. overnight. For β-galactosidase enzyme calorimetric assay, plates were thawed out at room temperature and 20 μL 2× assay buffer (Promega) was added to each well. Color was allowed to develop at 37° C., 5% CO2, 90% Rh for 1-1.5 h or until reasonable signal appeared. The calorimetric reaction was stopped with the addition of 60 μL/well 1M sodium carbonate. Plates were counted at 405 nm on a SpectraMax Microplate Reader (Molecular Devices). Data was analyzed in Microsoft Excel and IC/EC50 curves were fit using a standardized macro.

Structures are written as SMILES.

T1 sequence (P29274 whole entry): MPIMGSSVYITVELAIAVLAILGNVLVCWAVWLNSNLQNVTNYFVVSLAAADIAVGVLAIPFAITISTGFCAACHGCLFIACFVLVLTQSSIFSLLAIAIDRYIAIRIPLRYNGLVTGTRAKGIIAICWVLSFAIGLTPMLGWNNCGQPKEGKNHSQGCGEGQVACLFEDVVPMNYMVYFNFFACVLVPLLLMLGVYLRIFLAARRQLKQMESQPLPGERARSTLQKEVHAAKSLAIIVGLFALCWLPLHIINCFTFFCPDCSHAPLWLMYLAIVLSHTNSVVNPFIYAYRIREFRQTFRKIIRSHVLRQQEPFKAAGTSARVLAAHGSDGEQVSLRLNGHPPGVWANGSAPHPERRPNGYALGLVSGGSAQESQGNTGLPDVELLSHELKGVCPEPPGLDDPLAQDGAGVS

As to `CCc1ccc(-c2nc(N)c3cc(CN4CCOCC4)sc3n2)o1` [Example 8, 2-(5-Ethyl-furan-2-yl)-6-morpholin-4-ylmethyl-thieno[2,3-d]pyrimidin-4-ylamine], the Ki (in general, the dissociation constant of the complex between target and ligand, obtained from inhibition or displacement) is 78.2 nM in test [1] and > 610 nM in test [2].

As to `Cc1csc(-c2nc(N)c3cc(CN4[C@H](C)CCC[C@@H]4C)sc3n2)n1` [Example 9, 6-(2,6-Dimethyl-piperidin-1-ylmethyl)-2-(4-methyl-thiazol-2-yl)-thieno[2,3-d]pyrimidin-4-ylamine], the results for the Ki in test [1] and in test [2] were 89.4 nM and 297 nM, respectively.

Take `CC(C)c1ccc(-c2nc(N)c3cc(CN4[C@H](C)CCC[C@@H]4C)sc3n2)o1` [Example 10, 6-(2,6-Dimethyl-piperidin-1-ylmethyl)-2-(5-isopropyl-furan-2-yl)-thieno[2,3-d]pyrimidin-4-ylamine]: the inhibition constant (Ki) amounted to 17.3 nM in test [1] and 144 nM in test [2].

Regarding `CCc1ccc(-c2nc(N)c3cc(CN4[C@H](C)CCC[C@@H]4C)sc3n2)o1` [Example 11, 6-(2,6-Dimethyl-piperidin-1-ylmethyl)-2-(5-ethyl-furan-2-yl)-thieno[2,3-d]pyrimidin-4-ylamine], the Ki in test [1] worked out at 24.9 nM; in test [2], 194 nM.

For the compound `C[C@@H]1CCC[C@H](C)N1Cc1cc2c(N)nc(-c3ccc(C4CC4)o3)nc2s1` [Example 12, 2-(5-Cyclopropyl-furan-2-yl)-6-(2,6-dimethyl-piperidin-1-ylmethyl)-thieno[2,3-d]pyrimidin-4-ylamine], the Ki was 114 nM in test [1] and 333 nM in test [2].

For `C[C@@H]1CCC[C@H](C)N1Cc1cc2c(N)nc(-c3ccc(C(C)(C)C)s3)nc2s1` [Example 13, 2-(5-tert-Butyl-thiophen-2-yl)-6-(2,6-dimethyl-piperidin-1-ylmethyl)-thieno[2,3-d]pyrimidin-4-ylamine], the values for the Ki in test [1] and in test [2] were > 2340 nM and > 927 nM, respectively.

With `CC(C)(C)c1ccc(-c2nc(N)c3cc(CN4CCOCC4)sc3n2)s1` [Example 14, 2-(5-tert-Butyl-thiophen-2-yl)-6-morpholin-4-ylmethyl-thieno[2,3-d]pyrimidin-4-ylamine], the Ki in test [1] was > 2340 nM; in test [2], > 927 nM.

As to `Cc1csc(-c2nc(N)c3cc(CN4CCOCC4)sc3n2)n1` [Example 15, 2-(4-Methyl-thiazol-2-yl)-6-morpholin-4-ylmethyl-thieno[2,3-d]pyrimidin-4-ylamine], the Ki is 208 nM in test [1] and > 927 nM in test [2].

For the compound `Nc1nc(-c2ccon2)nc2sc(CN3CCOCC3)cc12` [Example 16, 2-Isoxazol-3-yl-6-morpholin-4-ylmethyl-thieno[2,3-d]pyrimidin-4-ylamine], the Ki in test [1] was 1010 nM; in test [2], 678 nM.

As to `C[C@@H]1CN(Cc2cc3c(N)nc(-c4cccc(C#N)c4)nc3s2)C[C@H](C)O1` [Example 17, 3-[4-Amino-6-(2,6-dimethyl-morpholin-4-ylmethyl)-thieno[2,3-d]pyrimidin-2-yl]-benzonitrile], the Ki in test [1] came to 150 nM; in test [2] it was 1070 nM.

`C[C@@H]1CCC[C@H](C)N1Cc1cc2c(N)nc(-c3ccon3)nc2s1` [Example 18, 6-(2,6-Dimethyl-piperidin-1-ylmethyl)-2-isoxazol-3-yl-thieno[2,3-d]pyrimidin-4-ylamine]: the Ki in test [1] came out at 130 nM; in test [2], 504 nM.

In the case of `C[C@@H]1CCC[C@H](C)N1Cc1cc2c(N)nc(-c3ccc(Br)o3)nc2s1` [Example 19, 2-(5-Bromo-furan-2-yl)-6-(2,6-dimethyl-piperidin-1-ylmethyl)-thieno[2,3-d]pyrimidin-4-ylamine], the Ki in test [1] stood at 12 nM; in test [2], 39.6 nM.

With `N#Cc1cccc(-c2nc(N)c3cc(CN4CCCC4c4ccccc4)sc3n2)c1` (centres unmarked) [Example 20, 3-[4-Amino-6-(2-phenyl-pyrrolidin-1-ylmethyl)-thieno[2,3-d]pyrimidin-2-yl]-benzonitrile], the Ki was found to be 154 nM in test [1] and 762 nM in test [2].

Regarding `CC(C)c1ccc(-c2nc(N)c3cc(CN4CCOCC4)sc3n2)o1` [Example 21, 2-(5-Isopropyl-furan-2-yl)-6-morpholin-4-ylmethyl-thieno[2,3-d]pyrimidin-4-ylamine], the Ki in test [1] is > 1360 nM; in test [2], > 594 nM.

In the case of `Nc1nc(-c2ccc(C3CC3)o2)nc2sc(CN3CCOCC3)cc12` [Example 22, 2-(5-Cyclopropyl-furan-2-yl)-6-morpholin-4-ylmethyl-thieno[2,3-d]pyrimidin-4-ylamine], the Ki was 958 nM in test [1] and > 1070 nM in test [2].

Take `C[C@@H]1CCC[C@H](C)N1Cc1cc2c(N)nc(-c3cccc(C#N)c3)nc2s1` [Example 23, 3-[4-Amino-6-(2,6-dimethyl-piperidin-1-ylmethyl)-thieno[2,3-d]pyrimidin-2-yl]-benzonitrile]: the Ki in test [1] stood at 64.5 nM; in test [2], 464 nM.

Regarding `Nc1nc(-c2nccs2)nc2sc(CN3CCOCC3)cc12` [Example 25, 6-Morpholin-4-ylmethyl-2-thiazol-2-yl-thieno[2,3-d]pyrimidin-4-ylamine], the Ki in test [1] amounted to 245 nM; in test [2], 2730 nM.

`Nc1nc(C2CC2)nc2sc(CN3CCCC3)cc12` [Example 43, 2-Cyclopropyl-6-pyrrolidin-1-ylmethyl-thieno[2,3-d]pyrimidin-4-ylamine]: the Ki in test [1] is 404 nM; in test [2] it was > 10000 nM.

As for `Nc1nc(-c2cc(F)cc(F)c2)nc2sc(CN3CCOCC3)cc12` [Example 47, 2-(3,5-Difluoro-phenyl)-6-morpholin-4-ylmethyl-thieno[2,3-d]pyrimidin-4-ylamine], the Ki is 349 nM in test [1] and 2300 nM in test [2].

Regarding `Nc1nc(-c2cccc(Cl)c2)nc2sc(CN3CCC(F)CC3)cc12` [Example 48, 2-(3-Chloro-phenyl)-6-(4-fluoro-piperidin-1-ylmethyl)-thieno[2,3-d]pyrimidin-4-ylamine], the Ki in test [1] was 733 nM; in test [2] it was 855 nM.

For `Nc1nc(-c2cccc(Cl)c2)nc2sc(CN3CCOCC3)cc12` [Example 49, 2-(3-Chloro-phenyl)-6-morpholin-4-ylmethyl-thieno[2,3-d]pyrimidin-4-ylamine], the Ki is 117 nM in test [1] and 785 nM in test [2].

Take `Nc1nc(-c2ccc(F)c(F)c2)nc2sc(CN3CCOCC3)cc12` [Example 50, 2-(3,4-Difluoro-phenyl)-6-morpholin-4-ylmethyl-thieno[2,3-d]pyrimidin-4-ylamine]: the values for the Ki in test [1] and in test [2] were 361 nM and 2890 nM, respectively.
